Measured values reported in US7790733B2, “8-alkoxy or cycloalkoxy-4-methyl-3,4-dihydro-quinazolin-2-ylamines” (Hoffman-La Roche Inc., priority 2005, dated 2010).

Molecular target: T1, recombinant human 5-HT5A receptor (Homo sapiens, UniProt P47898)
T1 construct: expressed in transfected cells; host or cells: Human Embryonic Kidney-EBNA (HEK-EBNA) cells, transient cDNA expression, membranes
Test: [3H]LSD radioligand binding assay, recombinant human 5-HT5A receptor in HEK-EBNA cell membranes
Conditions: [3H]LSD approx. 1 nM; membranes from HEK-EBNA cells transiently expressing 5-HT5A; Ki from IC50 by Cheng-Prussoff equation
Method: A [^3H]LSD radioligand binding assay was used to determine the affinity of the compounds for the recombinant human 5-HT5A receptor, in membranes from transiently (cDNA) expressed 5-HT5A receptors in Human Embryonic Kidney-EBNA (HEK-EBNA) cells. Assay buffer consisted of Tris (50 mM) buffer containing 1 mM EGTA, 10 mM MgCl2 (pH 7.4) and 10 μM pargyline. The binding assay was carried out in 96-well-plates in the presence of [^3H]LSD (approximately 1 nM), approximately 2 μg/well of membrane protein, and 0.5 mg of Ysi-poly-1-lysine SPA beads in a final volume of 200 μl of buffer. Non-specific binding was defined using methiothepin 2 μM. Compounds were tested at 10 concentrations. All assays were conducted in duplicate and repeated at least two times. Assay plates were incubated for 120 min at room temperature before centrifugation. Bound ligand was determined using a Packard Topcount scintillation counter. IC50 values were calculated using a non-linear curve fitting program and Ki values calculated using the Cheng-Prussoff equation. The activity of representative compounds (≦0.05 μM) is described in the table below: […]

T1 sequence (P47898 whole entry): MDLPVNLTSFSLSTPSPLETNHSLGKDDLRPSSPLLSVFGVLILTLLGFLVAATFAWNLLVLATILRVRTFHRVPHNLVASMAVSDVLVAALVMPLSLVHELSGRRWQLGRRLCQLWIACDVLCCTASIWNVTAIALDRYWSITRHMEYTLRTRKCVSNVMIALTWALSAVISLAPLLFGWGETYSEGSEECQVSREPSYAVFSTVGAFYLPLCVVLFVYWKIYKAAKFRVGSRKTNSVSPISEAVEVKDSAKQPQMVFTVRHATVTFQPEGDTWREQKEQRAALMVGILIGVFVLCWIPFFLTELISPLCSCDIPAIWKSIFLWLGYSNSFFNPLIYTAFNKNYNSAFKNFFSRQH

| Ki [nM] | Compound |
| --- | --- |
| 6.34 | COc1cccc2c1N=C(N)NC2C (centres unmarked) [Example 1, 8-Methoxy-4-methyl-3,4-dihydro-quinazolin-2-ylamine] |
| 34.5 | CCOc1cccc2c1N=C(NC)NC2C (centres unmarked) [Example 7, (8-Ethoxy-4-methyl-3,4-dihydro-quinazolin-2-yl)-methyl-amine] |
| 28.2 | COc1cccc2c1N=C(NCC(F)F)NC2C (centres unmarked) [Example 6, (2,2-Difluoro-ethyl)-(8-methoxy-4-methyl-3,4-dihydro-quinazolin-2-yl)-amine] |
| 25.4 | CNC1=Nc2c(OC(C)C)cccc2C(C)N1 (centres unmarked) [Example 5, (8-Isopropoxy-4-methyl-3,4-dihydro-quinazolin-2-yl)-methyl-amine] |
| 16.2 | CNC1=Nc2c(OC3CCCC3)cccc2C(C)N1 (centres unmarked) [Example 16, (8-Cyclopentyloxy-4-methyl-3,4-dihydro-quinazolin-2-yl)-methyl-amine] |
| 38.4 | CNC1=Nc2c(OC)cccc2C(C)N1 (centres unmarked) [Example 9, (8-Methoxy-4-methyl-3,4-dihydro-quinazolin-2-yl)-methyl-amine] |

More lines, now with the values behind:

| Compound | Ki [nM] |
| --- | --- |
| CCOc1cccc2c1N=C(NCC(F)F)NC2C (centres unmarked) [Example 3, (2,2-Difluoro-ethyl)-(8-ethoxy-4-methyl-3,4-dihydro-quinazolin-2-yl)-amine] | 14.1 |
| CC1NC(NCC(F)F)=Nc2c(OC3CCCC3)cccc21 (centres unmarked) [Example 17, (8-Cyclopentyloxy-4-methyl-3,4-dihydro-quinazolin-2-yl)-(2,2-difluoro-ethyl)-amine] | 22.4 |
| CC(C)Oc1cccc2c1N=C(NCC(F)F)NC2C (centres unmarked) [Example 4, (2,2-Difluoro-ethyl)-(8-isopropoxy-4-methyl-3,4-dihydro-quinazolin-2-yl)-amine] | 23.2 |
| CC(C)Oc1cccc2c1N=C(N)NC2C (centres unmarked) [Example 2, 8-Isopropoxy-4-methyl-3,4-dihydro-quinazolin-2-ylamine] | 9.96 |
| CCOc1cccc2c1N=C(N)NC2C (centres unmarked) [Example 8, 8-Ethoxy-4-methyl-3,4-dihydro-quinazolin-2-ylamine] | 37.2 |
| COc1cc(Cl)c(C)c2c1N=C(NC1CCC1)NC2C (centres unmarked) [Example 19, (6-Chloro-8-methoxy-4,5-dimethyl-3,4-dihydro-quinazolin-2-yl)-cyclobutyl-amine] | 47.5 |
| CNC1=Nc2c(OC)cc(Cl)c(C)c2C(C)N1 (centres unmarked) [Example 20, (6-Chloro-8-methoxy-4,5-dimethyl-3,4-dihydro-quinazolin-2-yl)-methyl-amine] | 42.6 |
| COc1cc(Cl)c(C)c2c1N=C(N)NC2C (centres unmarked) [Example 18, 6-Chloro-8-methoxy-4,5-dimethyl-3,4-dihydro-quinazolin-2-ylamine] | 4.7 |
